One compound from US11572590B2, “Methods for evaluating tumor cell spheroids using 3D microfluidic cell culture device” (Dana-Farber Cancer Institute, Inc., priority 2017, dated 2023) can be followed below.

Read-outs that look alike come from different tables or passages of the source.

Common to all, as to test: SelectScreen Kinase Profiling, single point inhibition and IC50 for off-target kinases
Common to all, as to format: biochemical

In experiment [1] the target is T1, off-target kinases (Homo sapiens, UniProt O15111).
T1 sequence (O15111 1-745): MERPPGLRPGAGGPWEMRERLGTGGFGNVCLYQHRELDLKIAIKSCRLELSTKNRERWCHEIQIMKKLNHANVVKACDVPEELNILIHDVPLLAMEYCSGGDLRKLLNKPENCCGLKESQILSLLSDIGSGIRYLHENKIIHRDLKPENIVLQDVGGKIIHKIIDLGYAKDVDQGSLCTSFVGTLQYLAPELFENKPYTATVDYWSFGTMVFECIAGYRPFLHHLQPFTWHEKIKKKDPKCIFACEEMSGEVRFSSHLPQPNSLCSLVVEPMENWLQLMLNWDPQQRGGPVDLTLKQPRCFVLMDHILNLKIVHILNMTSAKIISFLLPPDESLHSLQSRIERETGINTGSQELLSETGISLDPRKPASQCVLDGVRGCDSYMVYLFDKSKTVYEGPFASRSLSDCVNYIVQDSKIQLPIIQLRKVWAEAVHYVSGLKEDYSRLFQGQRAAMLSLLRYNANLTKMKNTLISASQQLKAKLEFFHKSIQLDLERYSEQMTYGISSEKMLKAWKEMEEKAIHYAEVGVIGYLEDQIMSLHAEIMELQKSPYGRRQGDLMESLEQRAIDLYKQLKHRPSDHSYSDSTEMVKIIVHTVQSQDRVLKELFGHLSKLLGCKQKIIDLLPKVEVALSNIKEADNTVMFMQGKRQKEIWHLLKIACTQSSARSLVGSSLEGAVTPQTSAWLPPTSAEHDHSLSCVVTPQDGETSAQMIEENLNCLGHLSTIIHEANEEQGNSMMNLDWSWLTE
The note with it: CHUK (IKK alpha), ATP Km app, Adapta.

Experiment [2] deals with off-target kinases (Homo sapiens, UniProt P22607, K650E). The note with it: FGFR3 K650E (mutant), ZLYTE, ATP Km app.
Chain of off-target kinases (Homo sapiens, UniProt P22607, K650E) (P22607 23-806 K650E): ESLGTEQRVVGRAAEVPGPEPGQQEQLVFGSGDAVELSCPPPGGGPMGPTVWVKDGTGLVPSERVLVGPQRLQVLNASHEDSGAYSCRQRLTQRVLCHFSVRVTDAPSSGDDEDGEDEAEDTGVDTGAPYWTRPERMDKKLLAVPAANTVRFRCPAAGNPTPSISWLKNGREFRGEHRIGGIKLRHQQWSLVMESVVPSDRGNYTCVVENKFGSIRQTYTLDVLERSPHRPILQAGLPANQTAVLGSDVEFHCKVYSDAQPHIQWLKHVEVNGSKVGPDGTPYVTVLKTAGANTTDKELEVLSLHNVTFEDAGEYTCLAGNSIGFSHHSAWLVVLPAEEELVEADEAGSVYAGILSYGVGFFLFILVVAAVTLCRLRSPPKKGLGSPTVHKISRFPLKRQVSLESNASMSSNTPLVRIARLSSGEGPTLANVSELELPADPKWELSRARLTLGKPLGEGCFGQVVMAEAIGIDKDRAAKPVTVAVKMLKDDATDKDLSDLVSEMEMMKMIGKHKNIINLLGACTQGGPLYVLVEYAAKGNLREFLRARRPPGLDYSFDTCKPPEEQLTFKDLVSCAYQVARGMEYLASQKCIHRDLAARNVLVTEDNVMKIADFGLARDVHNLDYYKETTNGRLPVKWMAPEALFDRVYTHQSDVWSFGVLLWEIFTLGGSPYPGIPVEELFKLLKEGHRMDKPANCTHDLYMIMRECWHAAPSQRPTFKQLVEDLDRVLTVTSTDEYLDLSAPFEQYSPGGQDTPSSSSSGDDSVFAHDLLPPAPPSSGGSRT
Experiment [3] deals with T2, off-target kinases (Homo sapiens, UniProt P35626).
T2 sequence (P35626 1-688): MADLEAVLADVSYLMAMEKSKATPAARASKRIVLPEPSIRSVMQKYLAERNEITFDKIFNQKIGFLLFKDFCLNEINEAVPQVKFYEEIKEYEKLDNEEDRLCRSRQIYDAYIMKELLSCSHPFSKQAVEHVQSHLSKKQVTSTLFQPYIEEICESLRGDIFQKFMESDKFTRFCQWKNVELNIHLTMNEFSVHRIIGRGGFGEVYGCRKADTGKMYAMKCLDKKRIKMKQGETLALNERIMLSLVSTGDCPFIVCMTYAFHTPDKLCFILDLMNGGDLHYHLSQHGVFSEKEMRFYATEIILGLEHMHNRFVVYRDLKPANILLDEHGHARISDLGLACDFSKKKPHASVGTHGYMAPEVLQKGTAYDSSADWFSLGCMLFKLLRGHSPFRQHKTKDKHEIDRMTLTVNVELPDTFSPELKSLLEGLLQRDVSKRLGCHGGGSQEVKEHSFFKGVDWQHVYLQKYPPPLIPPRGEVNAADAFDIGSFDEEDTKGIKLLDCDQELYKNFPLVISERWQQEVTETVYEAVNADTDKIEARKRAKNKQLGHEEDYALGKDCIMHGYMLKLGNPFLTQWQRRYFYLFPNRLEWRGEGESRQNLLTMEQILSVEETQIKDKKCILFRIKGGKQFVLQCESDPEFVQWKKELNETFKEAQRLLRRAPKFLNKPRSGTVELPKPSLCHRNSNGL
The note with it: ADRBK2 (GRK3), ZLYTE, ATP Km app.

As usually defined, the inhibition is the drop in the measured response relative to a control, in per cent. As to `N#Cc1cc(-c2ncnc(Nc3ccc(N4CCN(C5COC5)CC4)cc3)n2)ccc1OC1CCOCC1` [Compound 1, 5-(4-((4-(4-(oxetan-3-yl)piperazin-1-yl)phenyl)amino)-1,3,5-triazin-2-yl)-2-((tetrahydro-2H-pyran-4-yl)oxy)benzonitrile], the inhibition worked out at 65% on off-target kinases [1] (read-out: % Inhibition 1); 50% on off-target kinases [1] (read-out: % Inhibition 2); 58% on off-target kinases [1] (read-out: % Inhibition Avg); 11% at off-target kinases [2] (read-out: % Inhibition 1); 6% on off-target kinases [2] (read-out: % Inhibition 2); 8% on off-target kinases [2] (read-out: % Inhibition Avg). For the same compound, the inhibition on off-target kinases [3] (read-out: % Inhibition 1) worked out at 6%; at off-target kinases [3] (read-out: % Inhibition 2) it was 4%; at off-target kinases [3] (read-out: % Inhibition Avg), 5%.
